Data reported in patent US20240247080A1, “GLP1/GIP/NPY2 RECEPTOR TRIPLE AGONISTS” (Boehringer Ingelheim International GmbH, priority 2022, published 2024).
Like-named read-outs stand apart in the source and are kept apart here. Starred links: 1 amine or outer side, 2 acyl side, 3 side chain; linkers in the order of their positions; H or OH if unused. Non-standard residues stand in square brackets, D forms with d. Groups on a side chain read outwards from the residue. No end group written: not given here. *: point of attachment. C20 diacid = O=C(O)CCCCCCCCCCCCCCCCCCC(=O)*; γGlu = O=C(O)[C@H](CCC(=O)[*:2])N[*:1]; εLys = N[C@@H](CCCCN[*:1])C(=O)[*:2]; Aib = CC(C)(N)C(=O)O

Experiments:
Format in all cases: cell-based
Conditions in all cases: CreLuc reporter gene assay
hNPY2R = biological target: T1, hNPY2R (Homo sapiens, UniProt P49146); assay: hNPY2R CreLuc reporter gene assay in 0.5% and 100% plasma
T1 construct: expressed in transfected cells; host or cells: HEK-293 cells carrying a CRE-luciferase reporter gene
T1 sequence (P49146 1-381): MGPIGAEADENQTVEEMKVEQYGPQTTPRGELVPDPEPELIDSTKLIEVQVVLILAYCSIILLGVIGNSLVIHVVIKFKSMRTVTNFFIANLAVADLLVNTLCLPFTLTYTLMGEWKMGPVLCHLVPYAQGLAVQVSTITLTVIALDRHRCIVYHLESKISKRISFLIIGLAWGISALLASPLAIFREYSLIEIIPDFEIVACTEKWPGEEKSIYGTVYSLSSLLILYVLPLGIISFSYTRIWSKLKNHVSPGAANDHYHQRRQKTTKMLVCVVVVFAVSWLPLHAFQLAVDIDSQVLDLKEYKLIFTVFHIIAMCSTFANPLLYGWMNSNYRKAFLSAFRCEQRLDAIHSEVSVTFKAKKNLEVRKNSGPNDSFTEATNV
Text: Example 1: hGLPR/hGIPR/hNPY2R CreLuc Assay in 0.5% and 100% Plasma
CHO and HEK-293 recombinant cell lines express a luciferase reporter gene under control of the cAMP responsive element (CRE). As a second recombinant protein the GLP-1 and NPY2 receptors were expressed in the reporter gene HEK cells, and the GIP receptor was expressed in the reporter gene CHO cells, respectively. Stimulation of these recombinant cells with an agonist leads to an increase of intracellular cAMP levels. In the presence of cAMP, the transcription factor CRE binding protein (CREB) binds to the CRE and to the CREB binding protein (CBP), which leads to transcription of the luciferase reporter gene. Peptides upon serial-dilution in 100% DMSO were transferred into 384-well assay plates with 5 μl pre-dispensed assay buffer (1×HBSS, 20 mM HEPES, pH7.4 supplemented with 0.5% human plasma) using acoustic dispensing on a Labcyte ECHO. Cryo-preserved transgenic reporter gene cells were thawed in assay buffer. 20 μl (10.000 cells/well) were added to the plate with the peptides and incubated for 4 hours at 37° C. in a humidified incubator. Following incubation, assay plates are equilibrated to room temperature, followed by addition of 25 μl of Bright-GIo™ Luciferase reagent, incubation at room temperature for 10 minutes and analysis of luminescence (Envision Reader). Concentration response evaluation of compounds was performed with 8 concentrations of peptides (covering four decades). EC50 values were calculated by non-linear regression using sigmoid concentration-response with variable slope. The same assays were run in the presence of 100% plasma with no additional buffer constituents.

hGLP1R = biological target: T2, hGLP1R (Homo sapiens, UniProt P43220); assay: hGLP1R CreLuc reporter gene assay in 0.5% and 100% plasma
T2 construct: expressed in transfected cells; host or cells: HEK-293 cells carrying a CRE-luciferase reporter gene
T2 sequence (P43220 24-463): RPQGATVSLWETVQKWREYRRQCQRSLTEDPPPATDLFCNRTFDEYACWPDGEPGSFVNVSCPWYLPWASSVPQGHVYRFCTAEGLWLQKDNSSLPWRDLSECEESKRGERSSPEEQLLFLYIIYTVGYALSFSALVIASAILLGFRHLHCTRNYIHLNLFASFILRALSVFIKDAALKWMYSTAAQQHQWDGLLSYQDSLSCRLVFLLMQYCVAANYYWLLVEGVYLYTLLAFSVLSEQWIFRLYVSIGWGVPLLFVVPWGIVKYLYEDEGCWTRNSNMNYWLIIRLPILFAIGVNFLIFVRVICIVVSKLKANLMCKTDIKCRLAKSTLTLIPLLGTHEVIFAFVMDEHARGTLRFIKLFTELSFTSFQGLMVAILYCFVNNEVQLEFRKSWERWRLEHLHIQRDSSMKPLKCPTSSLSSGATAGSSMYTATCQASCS
In short: (§1)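 Agonist EC50s came from 8-concentration curves over four decades, fitted by non-linear variable-slope regression of CRE-driven luciferase luminescence. Cells were exposed 4 h at 37 °C, in buffer with 0.5% human plasma or in 100% plasma; GIPR was expressed in CHO cells, GLP-1R and NPY2R in HEK cells.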

hGIPR = biological target: T3, hGIPR (Homo sapiens, UniProt P48546); assay: hGIPR CreLuc reporter gene assay in 0.5% and 100% plasma
T3 construct: expressed in transfected cells; host or cells: CHO cells carrying a CRE-luciferase reporter gene
T3 sequence (P48546 22-466): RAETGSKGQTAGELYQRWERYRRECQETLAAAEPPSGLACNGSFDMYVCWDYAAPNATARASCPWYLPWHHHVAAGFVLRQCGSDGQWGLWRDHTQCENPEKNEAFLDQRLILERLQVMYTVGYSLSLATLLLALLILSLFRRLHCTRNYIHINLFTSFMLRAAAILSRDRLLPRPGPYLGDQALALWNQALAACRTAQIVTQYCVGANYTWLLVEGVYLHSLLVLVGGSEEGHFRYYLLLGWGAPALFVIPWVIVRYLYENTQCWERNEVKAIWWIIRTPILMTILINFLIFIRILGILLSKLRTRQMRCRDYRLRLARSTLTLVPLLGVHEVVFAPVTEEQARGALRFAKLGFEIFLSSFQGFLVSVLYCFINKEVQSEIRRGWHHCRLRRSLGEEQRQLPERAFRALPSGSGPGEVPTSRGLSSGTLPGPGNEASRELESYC
In short: as §1

[1] = 0.5% human plasma, read-out: hNPY2R 0.5% hP
[2] = 100% human plasma, read-out: hNPY2R 100% hP
[3] = 0.5% human plasma, read-out: hGLP1R 0.5% hP
[4] = 0.5% human plasma, read-out: hGIPR 0.5% hP
[5] = 100% human plasma, read-out: hGIPR 100% hP
[6] = 100% human plasma, read-out: hGLP1R 100% hP

EC50 (hNPY2R; [1]) [nM] | EC50 (hNPY2R; [2]) [nM] | EC50 (hGLP1R; [3]) [nM] | EC50 (hGIPR; [4]) [nM] | EC50 (hGIPR; [5]) [nM] | EC50 (hGLP1R; [6]) [nM] | Compound
> 99.9 | > 999 | 0.11 | 0.17 | 1.07 |  | CC[C@H](C)[C@H](NC(=O)[C@H](CC(C)C)NC(=O)[C@H](Cc1c[nH]c2ccccc12)NC(=O)[C@H](CCC(=O)O)NC(=O)[C@@H](NC(=O)[C@H](Cc1ccccc1)NC(=O)[C@H](C)NC(=O)C(C)(C)NC(=O)[C@H](CCC(N)=O)NC(=O)[C@H](C)NC(=O)[C@H](CCC(N)=O)NC(=O)[C@H](CCCCN)NC(=O)[C@H](CCC(=O)O)NC(=O)[C@H](CC(C)C)NC(=O)C(C)(C)NC(=O)[C@@H](NC(=O)[C@H](CO)NC(=O)[C@H](Cc1ccc(O)cc1)NC(=O)[C@H](CC(=O)O)NC(=O)[C@H](CO)NC(=O)[C@@H](NC(=O)[C@H](Cc1ccccc1)NC(=O)[C@@H](NC(=O)CNC(=O)[C@H](CCC(=O)O)NC(=O)C(C)(C)NC(=O)[C@@H](N)Cc1ccc(O)cc1)[C@@H](C)O)[C@@H](C)O)[C@@H](C)CC)C(C)C)C(=O)N[C@@H](CCCCNC(=O)[C@@H](N)CCCCNC(=O)CC[C@H](NC(=O)CC[C@H](NC(=O)CC[C@H](NC(=O)CC[C@H](NC(=O)CC[C@H](NC(=O)CC[C@H](NC(=O)CCCCCCCCCCCCCCCCCCC(=O)O)C(=O)O)C(=O)O)C(=O)O)C(=O)O)C(=O)O)C(=O)O)C(=O)NCC(=O)NCC(=O)N1CCC[C@H]1C(=O)N[C@@H](CO)C(=O)N[C@@H](CO)C(=O)NCC(=O)N[C@@H](C)C(=O)N[C@@H](CO)C(=O)N[C@H](CC(C)C)C(=O)N[C@@H](CCCNC(=N)N)C(=O)N[C@H](Cc1c[nH]cn1)C(=O)N[C@@H](Cc1ccc(O)cc1)C(=O)N[C@@H](Cc1ccc(O)cc1)C(=O)N[C@@H](CC(N)=O)C(=O)N[C@@H](Cc1c[nH]c2ccccc12)C(=O)N[C@@H](CC(C)C)C(=O)N[C@H](C(=O)N[C@H](CCCNC(=N)N)C(=O)N[C@@H](CCC(N)=O)C(=O)N[C@@H](CCCNC(=N)N)C(=O)N[C@H](Cc1ccc(O)cc1)C(N)=O)[C@@H](C)O [Compound 5, Y-Aib-E-G-T-F-T-S-D-Y-S-I-Aib-L-E-K-Q-A-Q-Aib-A-F-V-E-W-L-I-K(1,3)-G-G-P-S-S-G-A-S-DLeu-R-DHis-Y-Y-N-W-L-T-DArg-Q-R-DTyr-NH2.C20DA-gGlu-gGlu-gGlu-gGlu-gGlu-gGlu-eLys(1,2)]
> 99.9 | > 999 | 0.11 | 0.14 | 0.87 | 1.66 | CC[C@H](C)[C@H](NC(=O)[C@H](CC(C)C)NC(=O)[C@H](Cc1c[nH]c2ccccc12)NC(=O)[C@H](CCC(=O)O)NC(=O)[C@@H](NC(=O)[C@H](Cc1ccccc1)NC(=O)[C@H](C)NC(=O)C(C)(C)NC(=O)[C@H](CCC(N)=O)NC(=O)[C@H](C)NC(=O)[C@H](CCC(N)=O)NC(=O)[C@H](CCCCN)NC(=O)[C@H](CCC(=O)O)NC(=O)[C@H](CC(C)C)NC(=O)C(C)(C)NC(=O)[C@@H](NC(=O)[C@H](CO)NC(=O)[C@H](Cc1ccc(O)cc1)NC(=O)[C@H](CC(=O)O)NC(=O)[C@H](CO)NC(=O)[C@@H](NC(=O)[C@H](Cc1ccccc1)NC(=O)[C@@H](NC(=O)CNC(=O)[C@H](CCC(=O)O)NC(=O)C(C)(C)NC(=O)[C@@H](N)Cc1ccc(O)cc1)[C@@H](C)O)[C@@H](C)O)[C@@H](C)CC)C(C)C)C(=O)N[C@@H](CCCCNC(=O)[C@@H](N)CCCCNC(=O)CC[C@H](NC(=O)CC[C@H](NC(=O)CC[C@H](NC(=O)CC[C@H](NC(=O)CC[C@H](NC(=O)CC[C@H](NC(=O)CCCCCCCCCCCCCCCCCCC(=O)O)C(=O)O)C(=O)O)C(=O)O)C(=O)O)C(=O)O)C(=O)O)C(=O)NCC(=O)NCC(=O)N1CCC[C@H]1C(=O)N[C@@H](CO)C(=O)N[C@@H](CO)C(=O)NCC(=O)N[C@@H](C)C(=O)N[C@@H](CO)C(=O)N[C@@H](CC(C)C)C(=O)N[C@@H](CCCNC(=N)N)C(=O)N[C@H](Cc1c[nH]cn1)C(=O)N[C@@H](Cc1ccc(O)cc1)C(=O)N[C@@H](Cc1ccc(O)cc1)C(=O)N[C@@H](CC(N)=O)C(=O)N[C@@H](Cc1c[nH]c2ccccc12)C(=O)N[C@@H](CC(C)C)C(=O)N[C@H](C(=O)N[C@H](CCCNC(=N)N)C(=O)N[C@@H](CCC(N)=O)C(=O)N[C@@H](CCCNC(=N)N)C(=O)N[C@H](Cc1ccc(O)cc1)C(N)=O)[C@@H](C)O [Compound 21, Y-Aib-E-G-T-F-T-S-D-Y-S-I-Aib-L-E-K-Q-A-Q-Aib-A-F-V-E-W-L-I-K(1,3)-G-G-P-S-S-G-A-S-L-R-DHis-Y-Y-N-W-L-T-DArg-Q-R-DTyr-NH2.C20DA-gGlu-gGlu-gGlu-gGlu-gGlu-gGlu-eLys(1,2)]
28.8 | 197 | 1.48 |  |  |  | H-Y[Aib]EGTFTSDYSI[Aib]LE[Aib]EAQ[Aib]KFVEWLIK([εLys-γGlu-γGlu-γGlu-γGlu-γGlu-γGlu-C20 diacid])GGPSSGASLRHYYNWLTRQRY-NH2 [Compound 16, Y-Aib-E-G-T-F-T-S-D-Y-S-I-Aib-L-E-Aib-E-A-Q-Aib-K-F-V-E-W-L-I-K(1,3)-GGPSSGASLRHYYNWLTRQRY-NH2.C20DA-gGlu-gGlu-gGlu-gGlu-gGlu-gGlu-eLys(1,2)]
11.6 |  | 0.1 |  |  | 2.55 | Y[Aib]EGTFTSDYSI[Aib]LEKQAQ[Aib]AFVEWLIK([γGlu-γGlu-γGlu-γGlu-γGlu-C20 diacid])GGPSSGASLRHYYNWLTRQRY-NH2 [Compound 238, Y-Aib-E-G-T-F-T-S-D-Y-S-I-Aib-L-E-K-Q-A-Q-Aib-A-F-V-E-W-L-I-K(1,3)-GGPSSGASLRHYYNWLTRQRY-NH2.C20DA-gGlu-gGlu-gGlu-gGlu-gGlu(1,2)]
